From US10221144B2, “Antibacterial compounds having broad spectrum of activity” (priority 2014, dated 2019)
Counter-ions that a name gives are not always drawn. Like-named read-outs stand apart in the source and are kept apart here.

Experiments:
Format in all cases: biochemical
[1] = target: T1, S. aureus DNA gyrase (Staphylococcus aureus, UniProt P0A0K8+P20831); assay: DNA gyrase supercoiling assay (S. aureus); conditions: for inhibition at 50 µM / inhibition at 100 µM: S. aureus, n/a = not active; for inhibition at 50 µM: conc. 50 μM; for inhibition at 100 µM: conc. 100 μM
T1 construct: purchased Inspiralis, UK
Description: (§1) The above compounds were tested for the inhibition of the enzyme DNA gyrase in a gyrase supercoiling assay and for the inhibition of the enzyme topoisomerase IV in a decatenation assay, in both Gram positive and Gram negative bacteria, according to the following methods.
(§2) Both the assays were carried out according to a set-up method modified from the article to Blanche F, et al. “Differential Behaviors of Staphylococcus aureus and Escherichia coli Type II DNA Topoisomerases”, Antimicrob. Agents Chemother., 1996, Vol. 40, No. 12 p. 2714-2720.
(§3) The compounds were screened at single concentration (200, 100 or 50 μM), in duplicate.
(§4) Reagents from S. aureus and E. coli Gyrase Supercoiling Assay kits (Inspiralis, UK) were used. A master mix with a total volume sufficient for the number of reactions to perform was prepared with the following reagents: 5× assay buffer, relaxed pBR322 substrate (0.5 μg/reaction), RNase-DNase free water. Aliquotes of this mix were dispensed in each tube, then 10× compound stock solutions or vehicle control (DMSO), were added to each reaction tube.
(§5) Reaction was started with E. Coli (2 U/reaction) or S. aureus (1 U/reaction) gyrase enzyme addition.
(§6) A sample added with an equal volume of dilution buffer was used as negative control (without enzyme).
(§7) The reaction tubes were gentle vortexed and incubated 30 minutes at 37° C. Each reaction was stopped by adding 30 μl of Stop Buffer and 30 μl chloroform/isoamyl alcohol (24/1), briefly vortexed for 5-10 seconds and centrifuged at 20000×g for 2 minutes. Samples were loaded onto 1% agarose gel and subjected to electrophoresis for 1 hour at 80V constant voltage in TAE (40 mM Tris-acetate, 2 mM EDTA).
(§8) Data acquisition and analysis. Treatment of relaxed pBR322 with DNA gyrase converted the relaxed topoisomers (DNAs of different linking number) to the supercoiled form of the plasmid, which migrates faster on an agarose gel. An upper band might also be visible, which consists of open-circular (nicked) DNA which is present in the relaxed substrate but co-migrates with some of the relaxed topoisomers.
(§9) Bands were visualized by ethidium bromide staining (dilution 1:20000) for 30 minutes followed by destaining in distilled water for 10 minutes.
(§10) In order to evaluate the compounds activity on the enzyme, the bands of supercoiled DNAs in the gel were photographed by a digital imaging system ImageQuant LAS 4000 (GE Healthcare) according to manufacturer's instructions.
(§11) The fluorescent intensity of each band was analyzed by ImageQuant TL software and it was expressed as volume (volume of the uncalibrated quantity of material in the image feature after subtraction of the background intensity by using rolling ball method).
(§12) Each band intensity was compared, as percentage, to vehicle sample band intensity, which served as positive control, on the same gel.
(§13) Inhibitory activity was expressed as percent of inhibition versus the positive control.
(§14) The supercoiled or decatenated DNA bands obtained as described in Example 1 were analysed as follows.
(§15) Bands were analyzed by gel documentation equipment (Syngene, Cambridge, UK) and quantitated using Syngene Gene Tools software. Raw gel data (fluorescent band volumes) collected from Syngene, GeneTools gel analysis software were converted to a percentage of the 100% control (the fully supercoiled or decatenated DNA band). […] The IC50 data were calculated by using the global curve fit non-linear regression tool by selecting the Single, 2 Parameter fit function from the Exponential Decay equation category.

[2] = target: T2, S. aureus Topoisomerase IV (Staphylococcus aureus, UniProt P0C1S7+P0C1U9); assay: Topoisomerase IV decatenation assay (S. aureus)
T2 construct: purchased Inspiralis, UK
Description: as §1, §2, §3
(§16) S. aureus and E. coli Topoisomerase IV decatenation kits (Inspiralis, UK) were used. A master mix with a total volume sufficient for the number of reactions to perform was prepared with the following reagents: 5× assay buffer (50 mM HEPES-KOH (pH 7.6), 100 mM potassium glutamate, 10 mM magnesium acetate, 10 mM DTT, 1 mM ATP, 50 μg/ml albumin), kDNA substrate (200 ng/reaction), RNase-DNase free water. Aliquots of this mix were dispensed in each tube, then 10× compound stock solutions or vehicle control (DMSO), were added in each reaction tube.
(§17) Reaction was started with Topoisomerase IV enzyme (0.5 U/reaction) addition.
as §6
(§18) The reaction tubes were gentle vortexed and incubated 30 minutes at 37° C. Each reaction was stopped by adding 30 μl of Stop Buffer and 30 μl of chloroform/isoamyl alcohol (24/1), briefly vortexed for 5-10 seconds and centrifuged at 20000×g for 2 minutes. Samples taken from the upper phase were loaded into 1% agarose gel and subjected to electrophoresis for 1 hour at 80V constant voltage in TAE (40 mM Tris-acetate, 2 mM EDTA).
(§19) Data acquisition and analysis. Due to the high molecular mass, kDNA could not enter an agarose gel under normal electrophoresis conditions, but remained in the wells. In the presence of Topo IV topoisomerase mini-circles (2.5 Kb) were released from kDNA by decatenation and were quickly and easily resolved in the gel at relatively high voltages.
(§20) Bands were visualized by ethidium bromide staining (dil 1:20000) for 30 minutes followed by destaining in distilled water for 10 minutes.
(§21) For single concentration screening assay, in order to evaluate the compounds activity on the enzymes, the bands of decatenated DNAs in the gel were photographed by a digital imaging system ImageQuant LAS 4000 (GE Healthcare) according to manufacturer's instructions.
as §11, §12, §13, §14, §15

[3] = target: T3, E. coli DNA gyrase (Escherichia coli, UniProt P0AES4+P0AES6); assay: DNA gyrase supercoiling assay (E. coli); conditions: for inhibition at 50 µM / inhibition at 100 µM: E. coli, n/a = not active; for inhibition at 50 µM: conc. 50 μM; for inhibition at 100 µM: conc. 100 μM
T3 construct: purchased Inspiralis, UK
Description: as §1, §2, §3, §4, §5, §6, §7, §8, §9, §10, §11, §12, §13, §14, §15

[4] = target: T4, E. coli Topoisomerase IV (Escherichia coli, UniProt P0AFI2+P20083); assay: Topoisomerase IV decatenation assay (E. coli); conditions: for inhibition at 50 µM / inhibition at 100 µM: E. coli, n/a = not active, read-out: % inhibition Topo IV; for inhibition at 50 µM: conc. 50 μM; for inhibition at 100 µM: conc. 100 μM
T4 construct: purchased Inspiralis, UK
Description: as §1, §2, §3, §16, §17, §6, §18, §19, §20, §21, §11, §12, §13, §14, §15

[5] = S. aureus, concentration-response curve, eight half-log concentrations 0.1 to 300 μM, read-out: IC50 Topo IV
[6] = S. aureus, conc. 50 μM, n/a = not active, read-out: % inhibition Topo IV

T3 sequence (P0AES4 whole entry, one chain of several): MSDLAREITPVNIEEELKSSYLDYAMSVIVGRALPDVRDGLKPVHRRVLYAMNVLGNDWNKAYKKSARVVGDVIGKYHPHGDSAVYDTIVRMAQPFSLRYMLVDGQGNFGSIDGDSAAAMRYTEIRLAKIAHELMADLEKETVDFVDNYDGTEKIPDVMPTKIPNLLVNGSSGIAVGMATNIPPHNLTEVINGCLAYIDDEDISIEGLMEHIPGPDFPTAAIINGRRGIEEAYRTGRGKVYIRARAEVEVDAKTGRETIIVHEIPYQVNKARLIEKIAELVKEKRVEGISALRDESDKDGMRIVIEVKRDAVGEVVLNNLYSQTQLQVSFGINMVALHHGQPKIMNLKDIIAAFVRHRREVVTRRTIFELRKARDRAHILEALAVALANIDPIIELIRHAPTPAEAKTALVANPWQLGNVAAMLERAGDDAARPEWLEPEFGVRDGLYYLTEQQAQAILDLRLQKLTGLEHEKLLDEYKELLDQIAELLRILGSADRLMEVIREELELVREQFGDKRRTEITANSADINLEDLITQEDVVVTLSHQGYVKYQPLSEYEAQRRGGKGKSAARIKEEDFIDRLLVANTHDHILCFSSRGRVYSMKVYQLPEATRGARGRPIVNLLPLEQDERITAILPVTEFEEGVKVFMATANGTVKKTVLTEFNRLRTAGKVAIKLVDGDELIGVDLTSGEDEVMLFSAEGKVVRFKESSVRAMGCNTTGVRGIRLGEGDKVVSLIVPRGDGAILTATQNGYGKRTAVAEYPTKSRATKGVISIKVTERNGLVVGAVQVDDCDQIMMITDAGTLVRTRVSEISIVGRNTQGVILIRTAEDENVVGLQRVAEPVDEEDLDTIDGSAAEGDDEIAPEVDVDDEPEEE
T2 sequence (P0C1S7 whole entry): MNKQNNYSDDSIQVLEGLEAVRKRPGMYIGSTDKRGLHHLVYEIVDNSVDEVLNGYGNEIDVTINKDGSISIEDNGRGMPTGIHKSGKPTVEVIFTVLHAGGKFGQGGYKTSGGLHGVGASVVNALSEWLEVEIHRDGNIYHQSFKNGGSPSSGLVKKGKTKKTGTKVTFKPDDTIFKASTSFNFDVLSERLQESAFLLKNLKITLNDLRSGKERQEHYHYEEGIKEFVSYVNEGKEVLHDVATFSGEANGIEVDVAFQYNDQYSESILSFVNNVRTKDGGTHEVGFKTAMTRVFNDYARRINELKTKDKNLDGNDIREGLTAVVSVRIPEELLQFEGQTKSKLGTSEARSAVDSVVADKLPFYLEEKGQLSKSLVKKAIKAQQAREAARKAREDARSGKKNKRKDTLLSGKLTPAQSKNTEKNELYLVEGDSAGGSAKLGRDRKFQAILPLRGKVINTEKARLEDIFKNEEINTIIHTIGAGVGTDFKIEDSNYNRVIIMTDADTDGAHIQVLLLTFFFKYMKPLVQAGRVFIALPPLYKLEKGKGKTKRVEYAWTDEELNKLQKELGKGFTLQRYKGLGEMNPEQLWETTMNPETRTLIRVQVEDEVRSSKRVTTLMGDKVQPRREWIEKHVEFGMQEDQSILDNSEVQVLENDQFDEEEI
T2 sequence (P0C1U9 whole entry): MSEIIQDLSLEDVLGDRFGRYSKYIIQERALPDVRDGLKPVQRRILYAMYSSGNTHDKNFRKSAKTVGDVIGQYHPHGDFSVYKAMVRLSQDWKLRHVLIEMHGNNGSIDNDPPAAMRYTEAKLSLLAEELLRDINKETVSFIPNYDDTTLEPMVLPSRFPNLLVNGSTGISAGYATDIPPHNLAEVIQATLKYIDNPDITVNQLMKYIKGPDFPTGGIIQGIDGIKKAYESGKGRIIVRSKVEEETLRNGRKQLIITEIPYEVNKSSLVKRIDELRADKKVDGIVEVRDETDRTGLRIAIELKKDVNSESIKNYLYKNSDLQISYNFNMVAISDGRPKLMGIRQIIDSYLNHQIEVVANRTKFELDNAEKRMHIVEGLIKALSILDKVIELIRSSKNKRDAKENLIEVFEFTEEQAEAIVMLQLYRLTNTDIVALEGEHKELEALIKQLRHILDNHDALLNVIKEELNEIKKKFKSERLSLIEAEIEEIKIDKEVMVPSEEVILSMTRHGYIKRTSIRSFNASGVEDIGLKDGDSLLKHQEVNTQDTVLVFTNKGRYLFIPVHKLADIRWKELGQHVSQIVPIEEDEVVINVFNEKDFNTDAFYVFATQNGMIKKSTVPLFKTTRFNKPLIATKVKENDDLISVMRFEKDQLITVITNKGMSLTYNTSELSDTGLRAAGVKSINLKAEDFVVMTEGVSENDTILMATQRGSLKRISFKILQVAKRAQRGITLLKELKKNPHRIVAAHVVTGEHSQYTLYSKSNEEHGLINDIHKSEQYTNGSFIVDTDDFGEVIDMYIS
T4 sequence (P20083 whole entry): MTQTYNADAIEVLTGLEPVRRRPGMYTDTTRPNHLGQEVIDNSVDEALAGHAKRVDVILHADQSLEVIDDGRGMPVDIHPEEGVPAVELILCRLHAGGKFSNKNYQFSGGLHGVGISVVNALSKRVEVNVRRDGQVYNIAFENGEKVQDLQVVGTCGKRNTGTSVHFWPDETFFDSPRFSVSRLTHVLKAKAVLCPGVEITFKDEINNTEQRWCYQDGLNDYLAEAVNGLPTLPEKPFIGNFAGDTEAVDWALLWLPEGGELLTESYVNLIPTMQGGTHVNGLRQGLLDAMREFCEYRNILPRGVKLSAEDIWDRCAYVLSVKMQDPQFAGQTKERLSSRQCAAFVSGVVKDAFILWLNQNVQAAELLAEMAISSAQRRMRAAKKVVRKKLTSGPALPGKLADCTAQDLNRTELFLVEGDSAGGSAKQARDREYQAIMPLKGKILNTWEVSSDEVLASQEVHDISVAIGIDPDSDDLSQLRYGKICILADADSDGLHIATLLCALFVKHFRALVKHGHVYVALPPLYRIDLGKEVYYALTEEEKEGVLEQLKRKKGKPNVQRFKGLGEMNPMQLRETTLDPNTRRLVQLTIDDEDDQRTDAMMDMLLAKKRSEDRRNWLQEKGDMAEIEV
T4 sequence (P0AFI2 whole entry): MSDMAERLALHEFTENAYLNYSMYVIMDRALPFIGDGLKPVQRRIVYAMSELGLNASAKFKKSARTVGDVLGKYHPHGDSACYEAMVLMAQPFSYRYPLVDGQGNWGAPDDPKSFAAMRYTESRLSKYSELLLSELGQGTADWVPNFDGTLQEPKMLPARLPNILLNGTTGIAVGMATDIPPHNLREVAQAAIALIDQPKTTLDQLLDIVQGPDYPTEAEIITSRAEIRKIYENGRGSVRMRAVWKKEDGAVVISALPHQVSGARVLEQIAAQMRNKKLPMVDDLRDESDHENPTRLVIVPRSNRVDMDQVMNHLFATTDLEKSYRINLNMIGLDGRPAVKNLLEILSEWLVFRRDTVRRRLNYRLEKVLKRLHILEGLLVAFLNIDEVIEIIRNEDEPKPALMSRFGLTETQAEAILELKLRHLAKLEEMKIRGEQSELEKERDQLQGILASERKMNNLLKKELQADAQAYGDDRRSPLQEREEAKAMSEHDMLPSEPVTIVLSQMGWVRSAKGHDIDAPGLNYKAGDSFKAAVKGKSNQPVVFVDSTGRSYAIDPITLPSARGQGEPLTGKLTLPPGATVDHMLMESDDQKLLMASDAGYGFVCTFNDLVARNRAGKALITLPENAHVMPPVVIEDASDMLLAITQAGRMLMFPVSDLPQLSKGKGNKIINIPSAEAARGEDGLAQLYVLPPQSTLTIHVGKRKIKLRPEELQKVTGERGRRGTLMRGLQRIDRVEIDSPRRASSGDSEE

Compound	inhibition at 50 µM [1] [%]	inhibition at 50 µM ([2]; read-out: % inhibition Topo IV) [%]	inhibition at 50 µM [3] [%]	inhibition at 50 µM [4] [%]	IC50 [1] [µM]	IC50 [2, 5] [µM]	IC50 [3] [µM]	IC50 [4] [µM]	inhibition at 100 µM [1] [%]	IC50 [2] [µM]	inhibition at 100 µM ([2]; S. aureus, conc. 100 μM, n/a = not active, read-out: % inhibition Topo IV) [%]	inhibition at 100 µM [3] [%]	inhibition at 100 µM [4] [%]	inhibition at 50 µM [2, 6] [%]
COc1cnc2ccnc(N3CCC(NCc4cc5c([nH]4)c(=O)oc4ccc(F)cc45)CC3)c2n1 [Compound 199, 8-fluoro-2-({[1-(3-methoxypyrido[3,4-b]pyrazin-5-yl)piperidin-4-yl]amino}methyl)[1]benzopyrano[3,4-b]pyrrol-4(3H)-one]	92	100	90	100										
NC(CN1CCN(c2nccc3ccc(F)cc23)CC1)c1nc2c(=O)oc3ccccc3c2[nH]1 (stereo not drawn) [Compound 158, 2-{1-amino-2-[4-(7-fluoroisoquinolin-1-yl)piperazin-1-yl]ethyl}[1]benzopyrano[3,4-d]imidazol-4(1H)-one hydrochloride]	100	100	95	97	0.86	2.13	1.86	0.92						
O=c1oc2ccccc2c2[nH]c(C(O)CN3CCN(c4nccc5ccc(F)cc45)CC3)nc12 (stereo not drawn) [Compound 152, 2-{2-[4-(7-fluoroisoquinolin-1-yl)piperazin-1-yl]-1-hydroxyethyl}[1]benzopyrano[3,4-d]imidazol-4(1H)-one hydrochloride]	100	88	88	100	0.31	0.53	0.66	0.85						
O=c1cc(NCC(O)CN2CCN(c3nccc4ccccc34)CC2)c2ccccc2o1 (racemic) [Compound 59, 4-({2-hydroxy-3-[4-(isoquinolin-1-yl)piperazin-1-yl]propyl}amino)-2H-chromen-2-one]					4.4		1.2	16.1	90	18.5	77	81	100	
COc1ccc2nccc(N3CCC(NCc4cc5c([nH]4)c(=O)oc4ccc(F)cc45)CC3)c2n1 [Compound 188, 8-fluoro-2-({[1-(6-methoxy-1,5-naphthyridin-4-yl)piperidin-4-yl]amino}methyl)[1]benzopyrano[3,4-b]pyrrol-4(3H)-one]	97		100	92	0.015		0.09	0.3		0.2				98
O=c1oc2ccc(F)cc2c2cc(CNC3CCN(c4nccc5ncccc45)CC3)[nH]c12 [Compound 187, 8-fluoro-2-({[1-(1,6-naphthyridin-5-yl)piperidin-4-yl]amino}methyl)[1]benzopyrano[3,4-b]pyrrol-4(3H)-one]	95		79	82	0.16		0.19	1.57		1.37				95
CCOC(=O)C1CN(c2nccc3ccc(F)cc23)CCC1NCc1cc2c(=O)oc3ccccc3c2[nH]1 (racemic) [Compound 184, ethyl 1-(7-fluoroisoquinolin-1-yl)-4-{[(4-oxo-1,4-dihydro[1]benzopyrano[4,3-b]pyrrol-2-yl)methyl]amino}piperidine-3-carboxylate]	83	69	68	58										
CC1CN(c2nccc3ccc(F)cc23)CCC1NCc1cc2c(=O)oc3ccccc3c2[nH]1 (stereo not drawn) [Compound 177, 2-({[1-(7-fluoroisoquinolin-1-yl)-3-methylpiperidin-4-yl]amino}methyl) [1]benzopyrano[4,3-b]pyrrol-4(1H)-one]	98		77	74										14
O=c1nc(NCC(O)CN2CCN(c3nccc4nccnc34)CC2)c2cc(F)ccc2o1 (stereo not drawn) [Compound 156, 6-fluoro-4-((2-hydroxy-3-(4-(pyrido[3,4-b]pyrazin-5-yl)piperazin-1-yl)propyl)amino)-2H-benzo[e][1,3]oxazin-2-one]	89		78	91	1.76	1.25	2.74	0.64						86
O=c1cc(NCCCN2CCN(c3nccc4ccc(Cl)cc34)CC2)c2ccccc2o1 [Compound 51, 4-({3-[4-(7-chloroisoquinolin-1-yl)piperazin-1-yl]propyl}amino)-2H-chromen-2-one]					4.5		0.9	2.4	91			100	88	
O=c1cc(CC(O)CCN2CCN(c3nccc4ccc(F)cc34)CC2)c2ccccc2o1 (stereo not drawn) [Compound 134, 4-{4-[4-(7-fluoroisoquinolin-1-yl)piperazin-1-yl]-2-hydroxybutyl}-2H-chromen-2-one]	71		87	78	0.81		2.8	2.5						
O=c1cc(NCCCN2CCC(c3nccc4ccccc34)CC2)c2ccccc2o1 [Compound 109, 4-({3-[4-(isoquinolin-1-yl)piperidin-1-yl]propyl}amino)-2H-chromen-2-one]	100		100	72	20.7		5.1	5.6						
O=c1oc2ccccc2c2[nH]c(CCCN3CCN(c4nccc5ccc(F)cc45)CC3)nc12 [Compound 147, 2-{3-[4-(7-fluoroisoquinolin-1-yl)piperazin-1-yl]propyl}[1]benzopyrano[3,4-d]imidazol-4(1H)-one]	85		84	74										
